pIC50: −log10 of the molar value.
Assays:
MCF7 = experiment: Antiproliferative activity against human MCF7 cells expressing wild-type p53 incubated for 72 hrs by MTT assay; type: functional, cell-based; details: MCF7, 72 h
[1] = Antiproliferative activity against human U-87 MG cells expressing wild-type p53 incubated for 72 hrs by MTT assay; type: functional, cell-based, U-87MG ATCC
ZR-75-1 = experiment: Antiproliferative activity against human ZR-75-1 cells expressing wild-type p53 incubated for 72 hrs by MTT assay; type: functional, cell-based; details: ZR-75-1, 72 h
HCT-116 [2] = experiment: Antiproliferative activity against human HCT-116 cells expressing wild-type p53 incubated for 72 hrs by MTT assay; type: functional, cell-based; details: HCT-116, 72 h
A549 = experiment: Antiproliferative activity against human A549 cells expressing wild-type p53 incubated for 72 hrs by MTT assay; type: functional, cell-based; details: A549, 72 h
HeLa = experiment: Antiproliferative activity against human HeLa cells expressing wild-type p53 incubated for 72 hrs by MTT assay; type: functional, cell-based
A-375 = experiment: Antiproliferative activity against human A-375 cells expressing wild-type p53 incubated for 72 hrs by MTT assay; type: functional, cell-based; details: A-375, 72 h
HepG2 = experiment: Antiproliferative activity against human HepG2 cells expressing wild-type p53 incubated for 72 hrs by MTT assay; type: functional, cell-based; details: HepG2, 72 h
[3] = Antiproliferative activity against human SJSA-1 cells expressing wild-type p53 incubated for 72 hrs by MTT assay; type: functional, cell-based; details: SJSA-1, 72 h
[4] = Antiproliferative activity against HEK293T cells incubated for 72 hrs by MTT assay; type: toxicity, cell-based, HEK-293T; details: human
[5] = Induction of alpha-helical conformation in phosphate buffer at pH 7 at 100 uM by CD analysis; type: physicochemical; details: pH 7, 100 µM
[6] = Stability of compound in 50 percent human serum assessed as half life measured for 24 hrs by HPLC analysis; type: ADME, cell-free; details: 50% human serum
HCT-116 [7] = experiment: Induction of cell cycle arrest in human HCT-116 cells assessed as accumulation at G1 phase at 5 uM incubated for 24 hrs by PI staining based flow cytometry (reference value: 50.7 %); type: functional
HCT-116 [8] = experiment: Induction of cell cycle arrest in human HCT-116 cells assessed as accumulation at S phase at 5 uM incubated for 24 hrs by PI staining based flow cytometry (reference value: 29.4 %); type: functional
HCT-116 [9] = experiment: Induction of cell cycle arrest in human HCT-116 cells assessed as accumulation at G2 phase at 5 uM incubated for 24 hrs by PI staining based flow cytometry (reference value: 17.5 %); type: functional
HCT-116 [10] = experiment: Induction of cell cycle arrest in human HCT-116 cells assessed as accumulation at G1 phase at 10 uM incubated for 24 hrs by PI staining based flow cytometry (reference value: 50.7 %); type: functional
HCT-116 [11] = experiment: Induction of cell cycle arrest in human HCT-116 cells assessed as accumulation at S phase at 10 uM incubated for 24 hrs by PI staining based flow cytometry (reference value: 29.4 %); type: functional
HCT-116 [12] = experiment: Induction of cell cycle arrest in human HCT-116 cells assessed as accumulation at G2 phase at 10 uM incubated for 24 hrs by PI staining based flow cytometry (reference value: 17.5 %); type: functional
HCT-116 [13] = experiment: Induction of cell cycle arrest in human HCT-116 cells assessed as accumulation at G1 phase at 20 uM incubated for 24 hrs by PI staining based flow cytometry (reference value: 50.7 %); type: functional
HCT-116 [14] = experiment: Induction of cell cycle arrest in human HCT-116 cells assessed as accumulation at S phase at 20 uM incubated for 24 hrs by PI staining based flow cytometry (reference value: 29.4 %); type: functional
HCT-116 [15] = experiment: Induction of cell cycle arrest in human HCT-116 cells assessed as accumulation at G2 phase at 20 uM incubated for 24 hrs by PI staining based flow cytometry (reference value: 17.5 %); type: functional
HCT-116 [16] = experiment: Induction of apoptosis in human HCT-116 cells at 25 uM incubated for 48 hrs by Annexin V-FITC/PI staining based flow cytometry relative to control; type: functional
HCT-116 [17] = experiment: Induction of apoptosis in human HCT-116 cells at 50 uM incubated for 48 hrs by Annexin V-FITC/PI staining based flow cytometry relative to control; type: functional
HCT-116 [18] = experiment: Induction of apoptosis in human HCT-116 cells at 100 uM incubated for 48 hrs by Annexin V-FITC/PI staining based flow cytometry relative to control; type: functional
HCT-116 [19] = experiment: Induction of cell cycle arrest in human HCT-116 cells assessed as accumulation at G1 phase at 5 uM incubated for 24 hrs by PI staining based flow cytometry (reference value: 48.8 %); type: functional
HCT-116 [20] = experiment: Induction of cell cycle arrest in human HCT-116 cells assessed as accumulation at S phase at 5 uM incubated for 24 hrs by PI staining based flow cytometry (reference value: 31.8 %); type: functional
HCT-116 [21] = experiment: Induction of cell cycle arrest in human HCT-116 cells assessed as accumulation at G2 phase at 5 uM incubated for 24 hrs by PI staining based flow cytometry (reference value: 17.1 %); type: functional
HCT-116 [22] = experiment: Induction of cell cycle arrest in human HCT-116 cells assessed as accumulation at G1 phase at 10 uM incubated for 24 hrs by PI staining based flow cytometry (reference value: 48.8 %); type: functional
HCT-116 [23] = experiment: Induction of cell cycle arrest in human HCT-116 cells assessed as accumulation at S phase at 10 uM incubated for 24 hrs by PI staining based flow cytometry (reference value: 31.8 %); type: functional
HCT-116 [24] = experiment: Induction of cell cycle arrest in human HCT-116 cells assessed as accumulation at G2 phase at 10 uM incubated for 24 hrs by PI staining based flow cytometry (reference value: 17.1 %); type: functional
HCT-116 [25] = experiment: Induction of cell cycle arrest in human HCT-116 cells assessed as accumulation at G1 phase at 20 uM incubated for 24 hrs by PI staining based flow cytometry (reference value: 48.8 %); type: functional
HCT-116 [26] = experiment: Induction of cell cycle arrest in human HCT-116 cells assessed as accumulation at S phase at 20 uM incubated for 24 hrs by PI staining based flow cytometry (reference value: 31.8 %); type: functional
HCT-116 [27] = experiment: Induction of cell cycle arrest in human HCT-116 cells assessed as accumulation at G2 phase at 20 uM incubated for 24 hrs by PI staining based flow cytometry (reference value: 17.1 %); type: functional
HCT-116 [28] = experiment: Antitumor activity against human HCT-116 cells xenografted in BALB/c nude mouse at 5 mg/kg, iv treated for 14 days on every 48 hrs relative to control; type: functional; details: HCT-116, 336 h, time 14 day, read-out: TGI
HCT-116 [29] = experiment: Antitumor activity against human HCT-116 cells xenografted in BALB/c nude mouse at 10 mg/kg, iv treated for 14 days on every 48 hrs relative to control; type: functional; details: HCT-116, 336 h, time 14 day, read-out: TGI
[30] = Toxicity in BALB/c nude mouse xenografted with human HCT-116 cells assessed as change in body weight at 5 to 10 mg/kg, iv treated for 14 days on every 48 hrs; type: organism-based; details: in vivo, 336 h, dose 5-10 mg/kg, time 14 day
[31] = Toxicity in BALB/c nude mouse xenografted with human HCT-116 cells assessed as change in weight of heart at 5 to 10 mg/kg, iv treated for 14 days on every 48 hrs; type: organism-based; details: in vivo, 336 h, dose 5-10 mg/kg, time 14 day
[32] = Toxicity in BALB/c nude mouse xenografted with human HCT-116 cells assessed as change in weight of liver at 5 to 10 mg/kg, iv treated for 14 days on every 48 hrs; type: organism-based; details: in vivo, 336 h, dose 5-10 mg/kg, time 14 day
[33] = Toxicity in BALB/c nude mouse xenografted with human HCT-116 cells assessed as change in weight of spleen at 5 to 10 mg/kg, iv treated for 14 days on every 48 hrs; type: organism-based; details: in vivo, 336 h, dose 5-10 mg/kg, time 14 day
[34] = Toxicity in BALB/c nude mouse xenografted with human HCT-116 cells assessed as change in weight of lungs at 5 to 10 mg/kg, iv treated for 14 days on every 48 hrs; type: organism-based; details: in vivo, 336 h, dose 5-10 mg/kg, time 14 day
[35] = Toxicity in BALB/c nude mouse xenografted with human HCT-116 cells assessed as change in weight of kidneys at 5 to 10 mg/kg, iv treated for 14 days on every 48 hrs; type: organism-based; details: in vivo, 336 h, dose 5-10 mg/kg, time 14 day
[36] = Toxicity in BALB/c nude mouse xenografted with human HCT-116 cells assessed as histopathological change in heart at 5 to 10 mg/kg, iv treated for 14 days on every 48 hrs by H and E staining based analysis; type: organism-based; details: in vivo, 336 h, dose 5-10 mg/kg, time 14 day
[37] = Toxicity in BALB/c nude mouse xenografted with human HCT-116 cells assessed as histopathological change in liver at 5 to 10 mg/kg, iv treated for 14 days on every 48 hrs by H and E staining based analysis; type: organism-based; details: in vivo, 336 h, dose 5-10 mg/kg, time 14 day
[38] = Toxicity in BALB/c nude mouse xenografted with human HCT-116 cells assessed as histopathological change in spleen at 5 to 10 mg/kg, iv treated for 14 days on every 48 hrs by H and E staining based analysis; type: organism-based; details: in vivo, 336 h, dose 5-10 mg/kg, time 14 day
[39] = Toxicity in BALB/c nude mouse xenografted with human HCT-116 cells assessed as histopathological change in lungs at 5 to 10 mg/kg, iv treated for 14 days on every 48 hrs by H and E staining based analysis; type: organism-based; details: in vivo, 336 h, dose 5-10 mg/kg, time 14 day
[40] = Toxicity in BALB/c nude mouse xenografted with human HCT-116 cells assessed as histopathological change in kidneys at 5 to 10 mg/kg, iv treated for 14 days on every 48 hrs by H and E staining based analysis; type: organism-based; details: in vivo, 336 h, dose 5-10 mg/kg, time 14 day

## CSCC[C@H](NC(=O)[C@H](CC(C)C)NC(=O)[C@H](CCC(N)=O)NC(=O)[C@@H]1CCCCNCc2ccc(cc2)CNCCCC[C@H](NC(=O)[C@H](Cc2ccccc2)NC(=O)[C@@H](NC(=O)[C@H](CC(C)C)NC(C)=O)[C@@H](C)O)C(=O)N[C@@H](CCC(=O)O)C(=O)N[C@@H](Cc2ccc(O)cc2)C(=O)N[C@@H](Cc2c[nH]c3ccccc23)C(=O)N1)C(=O)N[C@@H](CCC(N)=O)C(=O)N[C@@H](C)C(=O)N[C@@H](C)C(N)=O
MCF7
  pIC50: 4.60
[1]
  pIC50: 5.14
ZR-75-1
  pIC50: 5.14
HCT-116 [2]
  pIC50: 4.84
A549
  pIC50: 5.19
HeLa
  pIC50: 4.04
A-375
  pIC50: < 3.80
HepG2
  pIC50: < 3.80
[3]
  pIC50: < 3.80
[4]
  IC50 at 72 h: > 160 µM
[5]
  Activity: 11%
[6]
  half-life: 3 h
HCT-116 [7]
  Activity: 33.8%
HCT-116 [8]
  Activity: 40.5%
HCT-116 [9]
  Activity: 23.9%
HCT-116 [10]
  Activity: 33.9%
HCT-116 [11]
  Activity: 36.2%
HCT-116 [12]
  Activity: 29%
HCT-116 [13]
  Activity: 34.1%
HCT-116 [14]
  Activity: 32.3%
HCT-116 [15]
  Activity: 32.7%
HCT-116 [16]
  Activity: 55.66%
HCT-116 [17]
  Activity: 56.51%
HCT-116 [18]
  Activity: 70.13%

## CC(=O)N[C@@H](CC(C)C)C(=O)N[C@H](C(=O)N[C@@H](Cc1ccccc1)C(=O)N[C@H]1CCCCNCc2cccc(c2)CNCCCC[C@@H](C(=O)N[C@@H](CCC(N)=O)C(=O)N[C@@H](CC(C)C)C(=O)N[C@H](C(=O)N[C@@H](CO)C(=O)N[C@@H](C)C(=O)N[C@@H](C)C(N)=O)[C@@H](C)O)NC(=O)[C@H](Cc2c[nH]c3ccccc23)NC(=O)[C@H](Cc2ccc(O)cc2)NC(=O)[C@H](Cc2c[nH]cn2)NC1=O)[C@@H](C)O
MCF7
  pIC50: 5.52
[1]
  pIC50: 5.43
ZR-75-1
  pIC50: 5.59
HCT-116 [2]
  pIC50: 5.24
A549
  pIC50: 4.56
HeLa
  pIC50: 4.34
A-375
  pIC50: 4.31
HepG2
  pIC50: < 3.80
[3]
  pIC50: < 3.80
[4]
  IC50 at 72 h: > 160 µM
[5]
  Activity: 11%
[6]
  half-life: 12 h
HCT-116 [19]
  Activity: 35.6%
HCT-116 [20]
  Activity: 37.7%
HCT-116 [21]
  Activity: 25.3%
HCT-116 [22]
  Activity: 38.1%
HCT-116 [23]
  Activity: 33%
HCT-116 [24]
  Activity: 28%
HCT-116 [25]
  Activity: 37.4%
HCT-116 [26]
  Activity: 30.5%
HCT-116 [27]
  Activity: 31.2%
HCT-116 [16]
  Activity: 35.22%
HCT-116 [17]
  Activity: 94.4%
HCT-116 [18]
  Activity: 93.14%
HCT-116 [28]
  inhibition in vivo at 5 mg/kg: 13%
HCT-116 [29]
  inhibition in vivo at 10 mg/kg: 30%
[30]
  Activity: Non-toxic
[31]
  Activity: Non-toxic
[32]
  Activity: Non-toxic
[33]
  Activity: Non-toxic
[34]
  Activity: Non-toxic
[35]
  Activity: Non-toxic
[36]
  Activity: Non-toxic
[37]
  Activity: Non-toxic
[38]
  Activity: Non-toxic
[39]
  Activity: Non-toxic
[40]
  Activity: Non-toxic
